Laboratory results reported in US7951789B2 (priority 2006, dated 2011).
“And” between values parts separate entries of the source, which are not always exact repeats. Equal entries are not always repeated.

Assays:
[1] = Cytotoxicity evaluation in GS4.1 cells (Cell Titer 96 AQueous One Solution); assay type: cell-based; conditions: human, 72 hours
Method: (§1) Huh-7 cells containing HCV Conl subgenomic replicon (GS4.1 cells), (C. Seeger; Fox Chase University, Philadelphia, Pa., USA), are grown in Dulbecco's Modified Eagle Medium (DMEM) supplemented with 10% fetal bovine serum (FBS), 2 mM L-glutamine, 110 mg/L sodium pyruvate, 1×non-essential amino acids, 100 U/mL penicillin-streptomycin and 0.5 mg/mL G418 (Invitrogen). For dose-response testing, the cells are seeded in 96-well plates at 7.5×10^3 cells/well in a volume of 50 μL and incubated at 37° C./5% CO2. Three hours after plating, 50 μL of ten 2-fold serial dilutions of compounds (highest concentration, 75 μM) are added and cell cultures were incubated at 37° C./5% CO2 in the presence of 0.5% DMSO. Alternatively, compounds are tested at a single concentration of 15 μM. In all cases, Huh-7 cells lacking the HCV replicon served as negative control. The cells are incubated in the presence of compounds for 72 hours after which they were monitored for expression of the NS4A protein by enzyme-linked immunosorbent assay (ELISA). For this, the plates were then fixed for 1 min with 1:1 acetone:methanol, washed twice with phosphate-buffered saline (PBS), 0.1% Tween 20, blocked for 1 hour at room temperature with TNE buffer containing 10% FBS and then incubated for 2 h at 37° C. with the anti-NS4A mouse monoclonal antibody A-236 (ViroGen) diluted in the same buffer. After washing three times with PBS, 0.1% Tween 20, the cells are incubated 1 hour at 37° C. with anti-mouse immunoglobulin G-peroxidase conjugate in TNE, 10% FBS. After washing as described above, the reaction is developed with O-phenylenediamine (Zymed). The reaction is stopped after 30 minutes with […] and the absorbance is read at 492 nm using a Sunrise Tecan spectrophotometer. EC50 values are determined from the % inhibition versus concentration data using a sigmoidal non-linear regression analysis based on four parameters with Tecan Magellan software. […] For cytotoxicity evaluation, GS4.1 cells are treated with compounds as described above and cellular viability was monitored using a Cell Titer 96 AQueous One Solution Cell Proliferation Assay (Promega). CC50 values are determined from the % cytotoxicity versus concentration data with Tecan Magellan software as described above.

[2] = test system: HCV Conl subgenomic replicon (GS4.1 cells); experiment: HCV replicon assay (NS4A ELISA, HCV ELISA 2); assay type: cell-based; conditions: Hepatitis C virus; GS4.1 cells, 72 hours, NS4A ELISA; read-out: HCV ELISA 2 EC50
Method: as §1

[3] = In vivo studies in rat: distribution of A550 and LddATP in the liver; conditions: male rats
Method: Distribution of NM-204 (the compound of Example 1 (Hydroxy-tBuSATE N-benzylphosphoramidate derivative of L-ddA) (A550) in the rat liver was evaluated following a single intravenous (I.V.) or oral administration of A550 (NM-204) at a dose of 20 (oral) or 10 (I.V.) mg/Kg body weight. The dose solutions were prepared on the same day prior to dose administration.
At the specified time point (1 and 3 hours for IV animals or 1, 3 and 8 hours for oral animals), each animal was euthanized by CO2 gas followed by exsanguination via the abdominal vein. Livers were collected immediately after sacrifice, flash frozen in liquid nitrogen, placed on dry ice, and later stored at −70° C., before being analyzed.
Control rat liver samples were taken from whole frozen livers (Bioreclamation, Inc. Hicksville, N.Y.) with the aid of a tissue coring utensil (Harris Unicore, 8.0 mm, VWR,). Each ˜0.1 g sample was placed in individual 2 mL poly vials with 0.940 mL of 80% MeOH/20% DIH2O and homogenates were prepared using a mechanical tissue disruptor (Tissue Master, Omni-International, Inc, Marietta Ga.). The vials received a 10 μl aliquot of a working stock solution and a 50 μl aliquot of the ISTD before vortexing for ˜30 sec. The mixtures were stored overnight at −20° C. and the next day were removed for 10 min of centrifugation in a benchtop centrifuge. Each supernatant was transferred to individual centrifugation filtration units (0.45 μm) and the resulting filtrates were transferred to HPLC vials for the LC/MS/MS analysis. The final concentrations of ddATP in the calibration standards was 1000, 500, 250, 125, 50, and 0 pmol/ml. Each calibration standard was directly injected in a 50 μL volume onto the ion-exchange column for analysis. Standard curve analysis of calibration standards from control liver extracts was conducted.
Analysis of ddATP was done by an ion-exchange chromatography method with on-line positive ionization ESI-MS/MS detection in multiple reaction monitoring (MRM) detection mode. […] This is equivalent to a range of […] per gram liver by the sample preparation employed. The HPLC MS MS conditions described in Example 5 were utilized.

[4] = IV dose 10 mg/kg, 1 hr, individual animals, 10 mg/kg
[5] = IV dose 10 mg/kg, 3 hrs, individual animals, 10 mg/kg
[6] = Oral dose 20 mg/kg, 1 hr, individual animals, 20 mg/kg
[7] = Oral dose 20 mg/kg, 3 hrs, individual animals, 20 mg/kg
[8] = Oral dose 20 mg/kg, 8 hrs, individual animals, 20 mg/kg

Row | Compound | CC50 [1] [µM] | EC50 [2] [µM] | further results
1 | C[C@@]1(O)[C@H](O)[C@@H](CO)O[C@H]1n1ccc(=O)[nH]c1=O [C809 (NM106), 2′-C-methyluridine, reference compound] | > 75 | > 10 | –
2 | C[C@@]1(O)[C@H](O)[C@@H](CO)O[C@H]1n1cnc2c(=O)[nH]cnc21 [Example A608, 2′-C-methylinosine, reference compound] | > 75 | > 10 | –
3 | C[C@@]1(O)[C@H](O)[C@@H](CO)O[C@H]1n1cnc2c(Cl)ncnc21 [Example A849, 9-[2-C-methyl-β-ribofuranosyl]-6-chloropurine, reference compound] | > 75 | < 1 | –
4 | CC(C)(CO)C(=O)SCCOP(=O)(NCc1ccccc1)OC[C@H]1O[C@@H](n2ccc(=O)[nH]c2=O)[C@](C)(O)[C@@H]1O (some centres unmarked) [Example B229, Hydroxy-tBuSATE N-benzylphosphoramidate Derivative of 2′-C-methyluridine] | > 75 | 1 to 10 | –
5 | CC(C)C(N)C(=O)O[C@@H]1[C@@H](COP(=O)(NCc2ccccc2)OCCSC(=O)C(C)(C)CO)O[C@@H](n2ccc(N)nc2=O)[C@]1(C)O (stereo partly drawn) [Example B234, Hydroxy-tBuSATE N-benzylphosphoramidate Derivative of 3′-O-L-valinyl-2′-C-methylcytidine] | > 75 | 1 to 10 | –
6 | CC(C)(CO)C(=O)SCCOP(=O)(NCc1ccccc1)OC[C@H]1O[C@@H](n2cnc3c(Cl)ncnc32)[C@](C)(O)[C@@H]1O (stereo partly drawn) [Example B396, Hydroxy-tBuSATE N-benzylphosphoramidate Derivative of 9-[2-C-methyl-β-ribofuranosyl]-6-chloropurine] | ≤ 75 | < 1 | –
7 | C#C[C@@]1(F)[C@H](O)[C@@H](CO)O[C@H]1n1cnc2c(=O)[nH]c(N)nc21 [Example D961] | > 75 | > 10 | –
8 | C[C@@]1(O)[C@H](O)[C@@H](CO)O[C@H]1n1cc(F)c2c(N)ncnc21 [Example E810, 2′-C-methyl-7-deaza-7-fluoro-adenosine, reference compound] | > 75 | < 1 | –
9 | Hydroxy-tBuSATE N-benzylphosphoramidate derivative of L-ddA [A550 (Ex 1)] | – | – | Concentration Compound (A550) (Ex 1) in liver ([3]; IV dose 10 mg/kg, 1 hr, Mean): 80.0 pmol/g liver; Concentration Compound (A550) (Ex 1) in liver [3, 4]: 65.8 pmol/g liver and 89.1 pmol/g liver and 85.1 pmol/g liver; Concentration ddA-TP in liver [3, 4]: 2025 pmol/g liver and 1930 pmol/g liver and 1355 pmol/g liver; Concentration ddA-TP in liver ([3]; IV dose 10 mg/kg, 1 hr, individual animals, hepatocellularity 114 × 10^6 cells per gram liver, 10 mg/kg): 17.8 pmol/10^6 cells and 16.9 pmol/10^6 cells and 11.9 pmol/10^6 cells; Concentration Compound (A550) (Ex 1) in liver ([3]; IV dose 10 mg/kg, 3 hrs, Mean): 27.9 pmol/g liver; Concentration Compound (A550) (Ex 1) in liver [3, 5]: 28.3 pmol/g liver and 26.0 pmol/g liver and 29.3 pmol/g liver; Concentration ddA-TP in liver [3, 5]: 1345 pmol/g liver and 11.8 pmol/10^6 cells and 1940 pmol/g liver and 17.0 pmol/10^6 cells and 2990 pmol/g liver and 26.2 pmol/10^6 cells; Concentration Compound (A550) (Ex 1) in liver ([3]; Oral dose 20 mg/kg, 1 hr, Mean): 251 pmol/g liver; Concentration Compound (A550) (Ex 1) in liver [3, 6]: 411 pmol/g liver and 272 pmol/g liver and 70.2 pmol/g liver; Concentration ddA-TP in liver [3, 6]: 210 pmol/g liver and 1.8 pmol/10^6 cells and 575 pmol/g liver and 5.0 pmol/10^6 cells and 400 pmol/g liver and 3.5 pmol/10^6 cells; Concentration Compound (A550) (Ex 1) in liver ([3]; Oral dose 20 mg/kg, 3 hrs, Mean): 204 pmol/g liver; Concentration Compound (A550) (Ex 1) in liver [3, 7]: 360 pmol/g liver and 92.1 pmol/g liver and 161 pmol/g liver; Concentration ddA-TP in liver [3, 7]: 200 pmol/g liver and 1.8 pmol/10^6 cells and 330 pmol/g liver and 2.9 pmol/10^6 cells and 405 pmol/g liver and 3.6 pmol/10^6 cells; Concentration Compound (A550) (Ex 1) in liver ([3]; Oral dose 20 mg/kg, 8 hrs, Mean): 20.1 pmol/g liver; Concentration Compound (A550) (Ex 1) in liver [3, 8]: 16.4 pmol/g liver and 28 pmol/g liver and 16.2 pmol/g liver; Concentration ddA-TP in liver [3, 8]: 280 pmol/g liver and 2.5 pmol/10^6 cells and 805 pmol/g liver and 5.2 pmol/10^6 cells and 275 pmol/g liver and 2.4 pmol/10^6 cells
